Data: patent US9730944B2, “Antiviral activity of novel bicyclic heterocycles” (priority 2010, dated 2017)
In brackets after ≈: the same amount, converted by molar mass.

What was measured:
[1] = system: hRV-15; assay: Rhinovirus type 15 antiviral assay in Hela Rh cells, MTS readout; assay type: cell-based, Human rhinovirus; conditions: Human rhinovirus sp., HRV15, HeLa Rh, Hela Rh cells; read-out: hRV-15 EC50
[2] = Cytostatic/cytotoxic effect in Hela Rh cells (rhinovirus methodology, MTS); conditions: human, CC50, Hela Rh cells
[3] = system: hRV-39; assay: Rhinovirus type 39 antiviral assay in Hela Rh cells, MTS readout; assay type: cell-based, Human rhinovirus; conditions: Human rhinovirus sp., HRV39, HeLa Rh, Hela Rh cells; read-out: hRV-39 EC50
[4] = system: hRV-86; assay: Rhinovirus type 86 antiviral assay in Hela Rh cells, MTS readout; assay type: cell-based, Human rhinovirus; conditions: Human rhinovirus sp., HRV86, HeLa Rh, Hela Rh cells; read-out: hRV-86 EC50
[5] = system: hRV-63; assay: Rhinovirus type 63 antiviral assay in Hela Rh cells, MTS readout; assay type: cell-based, Human rhinovirus; conditions: Human rhinovirus sp., HRV63, HeLa Rh, Hela Rh cells; read-out: hRV-63 EC50
[6] = system: hRV-2; assay: Rhinovirus type 2 antiviral assay in Hela Rh cells, MTS readout; assay type: cell-based, Human rhinovirus; conditions: Rhinovirus A, HRV2, HeLa Rh, Hela Rh cells; read-out: hRV-2 EC50
[7] = system: hRV-9; assay: Rhinovirus type 9 antiviral assay in Hela Rh cells, MTS readout; assay type: cell-based, Human rhinovirus; conditions: Human rhinovirus sp., HRV9, HeLa Rh, Hela Rh cells; read-out: hRV-9 EC50
[8] = system: hRV-29; assay: Rhinovirus type 29 antiviral assay in Hela Rh cells, MTS readout; assay type: cell-based; conditions: Human rhinovirus sp., HRV29, HeLa Rh, Hela Rh cells; read-out: hRV-29 EC50
[9] = system: hRV-72; assay: Rhinovirus type 72 antiviral assay in Hela Rh cells, MTS readout; assay type: cell-based, Human rhinovirus; conditions: Human rhinovirus sp., HRV72, HeLa Rh, Hela Rh cells; read-out: hRV-72 EC50
[10] = system: hRV-70; assay: Rhinovirus type 70 antiviral assay in Hela Rh cells, MTS readout; assay type: cell-based, Human rhinovirus; conditions: Human rhinovirus sp., HRV70, HeLa Rh, Hela Rh cells; read-out: hRV-70 EC50
[11] = system: hRV-85; assay: Rhinovirus type 85 antiviral assay in Hela Rh cells, MTS readout; assay type: cell-based, Human rhinovirus; conditions: Human rhinovirus sp., HRV85, HeLa Rh, Hela Rh cells; read-out: hRV-85 EC50
[12] = system: hRV-14; assay: Rhinovirus type 14 antiviral assay in Hela Rh cells, MTS readout; assay type: cell-based, Human rhinovirus; conditions: Rhinovirus B, HRV14, HeLa Rh, Hela Rh cells; read-out: hRV-14 EC50
[13] = system: hRV-41; assay: Rhinovirus type 41 antiviral assay in Hela Rh cells, MTS readout; assay type: cell-based, Human rhinovirus; conditions: Human rhinovirus sp., HRV41, HeLa Rh, Hela Rh cells; read-out: hRV-41 EC50
[14] = system: hRV-42; assay: Rhinovirus type 42 antiviral assay in Hela Rh cells, MTS readout; assay type: cell-based, Human rhinovirus; conditions: Human rhinovirus sp., HRV42, HeLa Rh, Hela Rh cells; read-out: hRV-42 EC50
[15] = system: hRV-45; assay: Rhinovirus type 45 antiviral assay in Hela Rh cells, MTS readout; assay type: cell-based, Human rhinovirus; conditions: Human rhinovirus sp., HRV45, HeLa Rh, Hela Rh cells; read-out: hRV-45 EC50

Structure (SMILES)	EC50 [1]	CC50 [2]	EC50 [3]	EC50 [4]	EC50 [5]	EC50 [6]	EC50 [7]	EC50 [8]	EC50 [9]	EC50 [10]	EC50 [11]	EC50 [12]	EC50 [13]	EC50 [14]	EC50 [15]
Nc1nc(N2CCN(C(=O)COc3cccc(Cl)c3)CC2)c2nc(CCc3ccc(F)cc3)sc2n1 [Example 228, 1-(4-(5-amino-2-(4-fluorophenethyl)thiazolo[5,4-d]pyrimidin-7-yl)piperazin-1-yl)-2-(3-chlorophenoxy)ethanone]	43.9 µg/mL (≈ 83.2 µM)	> 50 µg/mL	1.28 µg/mL (≈ 2.43 µM)	4.86 µg/mL (≈ 9.22 µM)	13.8 µg/mL (≈ 26.1 µM)	1.27 µg/mL (≈ 2.41 µM)	1.16 µg/mL (≈ 2.2 µM)	1.38 µg/mL (≈ 2.62 µM)	> 50 µg/mL	10 µg/mL (≈ 19.1 µM)	4.14 µg/mL (≈ 7.86 µM)	9.21 µg/mL (≈ 17.5 µM)	> 50 µg/mL	–	–
Nc1nc(N2CCN(C(=O)COc3ccc(Br)cc3)CC2)c2nc(-c3ccc(F)cc3)sc2n1 [Example 235, 1-(4-(5-amino-2-(4-fluorophenyl)thiazolo[5,4-d]pyrimidin-7-yl)piperazin-1-yl)-2-(4-bromophenoxy)ethanone]	< 0.02 µg/mL	> 50 µg/mL	< 0.02 µg/mL	0.58 µg/mL (≈ 1.07 µM)	< 0.39 µg/mL	< 0.02 µg/mL	< 0.02 µg/mL	< 0.02 µg/mL	0.65 µg/mL (≈ 1.2 µM)	< 0.39 µg/mL	< 0.39 µg/mL	0.04 µg/mL (≈ 0.0736 µM)	< 0.39 µg/mL	< 0.39 µg/mL	< 0.39 µg/mL
COc1ccc(OCC(=O)N2CCN(c3nc(N)nc4sc(CCc5ccc(Br)cc5)nc34)CC2)cc1 [Example 298, 1-(4-(5-amino-2-(4-bromophenethyl)thiazolo[5,4-d]pyrimidin-7-yl)piperazin-1-yl)-2-(4-methoxyphenoxy)ethanone]	1.61 µg/mL (≈ 2.76 µM)	> 50 µg/mL	0.45 µg/mL (≈ 0.771 µM)	4.58 µg/mL (≈ 7.85 µM)	3.9 µg/mL (≈ 6.68 µM)	0.45 µg/mL (≈ 0.771 µM)	0.55 µg/mL (≈ 0.943 µM)	0.89 µg/mL (≈ 1.53 µM)	6.52 µg/mL (≈ 11.2 µM)	4.71 µg/mL (≈ 8.07 µM)	2.21 µg/mL (≈ 3.79 µM)	1.23 µg/mL (≈ 2.11 µM)	10.4 µg/mL (≈ 17.8 µM)	1.2 µg/mL (≈ 2.06 µM)	4.56 µg/mL (≈ 7.81 µM)
COc1cccc(CCc2nc3c(N4CCN(C(=O)COc5ccc(Br)cc5)CC4)nc(N)nc3s2)c1 [Example 254, 1-(4-(5-amino-2-(3-methoxyphenethyl)thiazolo[5,4-d]pyrimidin-7-yl)piperazin-1-yl)-2-(4-bromophenoxy)ethanone]	3.44 µg/mL (≈ 5.9 µM)	> 50 µg/mL	1.18 µg/mL (≈ 2.02 µM)	4.62 µg/mL (≈ 7.92 µM)	5.85 µg/mL (≈ 10 µM)	1.3 µg/mL (≈ 2.23 µM)	1.26 µg/mL (≈ 2.16 µM)	1.27 µg/mL (≈ 2.18 µM)	9.05 µg/mL (≈ 15.5 µM)	4.77 µg/mL (≈ 8.17 µM)	3.99 µg/mL (≈ 6.84 µM)	1.23 µg/mL (≈ 2.11 µM)	13 µg/mL (≈ 22.3 µM)	2.41 µg/mL (≈ 4.13 µM)	4.87 µg/mL (≈ 8.35 µM)
CC(=O)c1ccc(OCC(=O)N2CCN(c3nc(N)nc4sc(CCc5ccc(F)cc5)nc34)CC2)cc1 [Example 227, 2-(4-acetylphenoxy)-1-(4-(5-amino-2-(4-fluorophenethyl)thiazolo[5,4-d]pyrimidin-7-yl)piperazin-1-yl)ethanone]	> 50 µg/mL	> 50 µg/mL	0.3 µg/mL (≈ 0.561 µM)	4.59 µg/mL (≈ 8.59 µM)	30.6 µg/mL (≈ 57.2 µM)	0.26 µg/mL (≈ 0.486 µM)	0.56 µg/mL (≈ 1.05 µM)	4.8 µg/mL (≈ 8.98 µM)	> 50 µg/mL	> 50 µg/mL	2.19 µg/mL (≈ 4.1 µM)	> 50 µg/mL	> 50 µg/mL	> 50 µg/mL	35.4 µg/mL (≈ 66.1 µM)
COC(=O)c1ccc(OCC(=O)N2CCN(c3nc(N)nc4sc(CCc5ccc(F)cc5)nc34)CC2)cc1 [Example 225, methyl 4-(2-(4-(5-amino-2-(4-fluorophenethyl)thiazolo[5,4-d]pyrimidin-7-yl)piperazin-1-yl)-2-oxoethoxy)benzoate]	> 50 µg/mL	5.34 µg/mL (≈ 9.7 µM)	> 50 µg/mL	> 50 µg/mL	39.7 µg/mL (≈ 72.1 µM)	1.12 µg/mL (≈ 2.03 µM)	> 50 µg/mL	> 50 µg/mL	> 50 µg/mL	> 50 µg/mL	14.6 µg/mL (≈ 26.5 µM)	> 50 µg/mL	> 50 µg/mL	> 50 µg/mL	43.1 µg/mL (≈ 78.3 µM)
CCCCCc1nc2c(N3CCN(C(=O)COc4ccc(OC)cc4)CC3)nc(N)nc2s1 [Example 296, 1-(4-(5-amino-2-pentylthiazolo[5,4-d]pyrimidin-7-yl)piperazin-1-yl)-2-(4-methoxyphenoxy)ethanone]	0.44 µg/mL (≈ 0.935 µM)	> 50 µg/mL	0.04 µg/mL (≈ 0.085 µM)	17.8 µg/mL (≈ 37.7 µM)	0.71 µg/mL (≈ 1.51 µM)	0.19 µg/mL (≈ 0.404 µM)	0.2 µg/mL (≈ 0.425 µM)	0.09 µg/mL (≈ 0.191 µM)	26.5 µg/mL (≈ 56.3 µM)	2.53 µg/mL (≈ 5.38 µM)	0.64 µg/mL (≈ 1.36 µM)	9.93 µg/mL (≈ 21.1 µM)	7.02 µg/mL (≈ 14.9 µM)	4.25 µg/mL (≈ 9.03 µM)	4.13 µg/mL (≈ 8.78 µM)
Nc1nc(N2CCN(C(=O)COc3ccc(Cl)cc3)CC2)c2nc(CCCCc3ccc(F)cc3)sc2n1 [Example 292, 1-(4-(5-amino-2-(4-(4-fluorophenyl)butyl)thiazolo[5,4-d]pyrimidin-7-yl)piperazin-1-yl)-2-(4-chlorophenoxy)ethanone]	> 50 µg/mL	> 50 µg/mL	39.4 µg/mL (≈ 70.9 µM)	> 50 µg/mL	> 50 µg/mL	13.6 µg/mL (≈ 24.6 µM)	> 50 µg/mL	> 50 µg/mL	> 50 µg/mL	> 50 µg/mL	10.3 µg/mL (≈ 18.6 µM)	> 50 µg/mL	> 50 µg/mL	> 50 µg/mL	> 50 µg/mL
COc1cccc(CCc2nc3c(N4CCN(C(=O)COc5ccc(Cl)cc5)CC4)nc(N)nc3s2)c1 [Example 255, 1-(4-(5-amino-2-(3-methoxyphenethyl)thiazolo[5,4-d]pyrimidin-7-yl)piperazin-1-yl)-2-(4-chlorophenoxy)ethanone]	1.82 µg/mL (≈ 3.38 µM)	> 50 µg/mL	0.5 µg/mL (≈ 0.928 µM)	2.61 µg/mL (≈ 4.84 µM)	3.31 µg/mL (≈ 6.14 µM)	0.65 µg/mL (≈ 1.21 µM)	0.52 µg/mL (≈ 0.965 µM)	0.6 µg/mL (≈ 1.11 µM)	> 50 µg/mL	4.02 µg/mL (≈ 7.46 µM)	2.18 µg/mL (≈ 4.04 µM)	0.53 µg/mL (≈ 0.983 µM)	20.8 µg/mL (≈ 38.6 µM)	1.1 µg/mL (≈ 2.04 µM)	2.34 µg/mL (≈ 4.34 µM)
COc1ccc(CCc2nc3c(N4CCN(C(=O)COc5ccc(Br)cc5)CC4)nc(N)nc3s2)cc1OC [Example 256, 1-(4-(5-amino-2-(3,4-dimethoxyphenethyl)thiazolo[5,4-d]pyrimidin-7-yl)piperazin-1-yl)-2-(4-bromophenoxy)ethanone]	> 50 µg/mL	> 50 µg/mL	1.8 µg/mL (≈ 2.93 µM)	4.86 µg/mL (≈ 7.92 µM)	32.9 µg/mL (≈ 53.6 µM)	2.07 µg/mL (≈ 3.37 µM)	4.05 µg/mL (≈ 6.6 µM)	4.06 µg/mL (≈ 6.62 µM)	6.89 µg/mL (≈ 11.2 µM)	5.97 µg/mL (≈ 9.73 µM)	9.48 µg/mL (≈ 15.5 µM)	2.81 µg/mL (≈ 4.58 µM)	> 50 µg/mL	5.22 µg/mL (≈ 8.51 µM)	> 50 µg/mL
COc1ccc(OCC(=O)N2CCN(c3nc(N)nc4sc(CCCCc5ccc(F)cc5)nc34)CC2)cc1 [Example 293, 1-(4-(5-amino-2-(4-(4-fluorophenyl)butyl)thiazolo[5,4-d]pyrimidin-7-yl)piperazin-1-yl)-2-(4-methoxyphenoxy)ethanone]	> 50 µg/mL	> 50 µg/mL	> 50 µg/mL	> 50 µg/mL	21.2 µg/mL (≈ 38.4 µM)	12.4 µg/mL (≈ 22.5 µM)	> 50 µg/mL	> 50 µg/mL	> 50 µg/mL	> 50 µg/mL	11.5 µg/mL (≈ 20.9 µM)	> 50 µg/mL	> 50 µg/mL	> 50 µg/mL	35.4 µg/mL (≈ 64.2 µM)
COc1ccc(OCC(=O)N2CCN(c3nc(N)nc4sc(-c5ccc(F)cc5)nc34)CC2)cc1 [Example 234, 1-(4-(5-amino-2-(4-fluorophenyl)thiazolo[5,4-d]pyrimidin-7-yl)piperazin-1-yl)-2-(4-methoxyphenoxy)ethanone]	29.3 µg/mL (≈ 59.2 µM)	> 50 µg/mL	0.08 µg/mL (≈ 0.162 µM)	> 50 µg/mL	1.32 µg/mL (≈ 2.67 µM)	0.06 µg/mL (≈ 0.121 µM)	–	0.04 µg/mL (≈ 0.0809 µM)	> 50 µg/mL	> 50 µg/mL	< 0.39 µg/mL	> 50 µg/mL	25.5 µg/mL (≈ 51.6 µM)	30.1 µg/mL (≈ 60.9 µM)	–
